Results reported in paper PMC8037097, “Highly Oxygenated Triterpenoids and Diterpenoids from Fructus Rubi (Rubus chingii Hu) and Their NF-kappa B Inhibitory Effects” (Molecules, 2021).
Values after ≈ are worked out from the molar mass of the structure shown. Read-outs that look alike come from different tables or passages of the source.

Columns and labels:
[1] = test system: NF-κB; assay: NF-κB inhibitory assay (luciferase, HEK293 with stable NF-κB expression, TNF-α stimulation); assay type: cell-based; settings: read-out: NF-κB (IC50)
Method: HEK293 with a stable NF-κB expression cell line was used for the luciferase assay. Cells were maintained at 37 °C and 5% CO2 atmosphere in Dulbecco’s modified Eagle’s medium with 100 U/mL benzylpenicillin 100 μg/mL streptomycin, 2 mM glutamine, and 10% fetal bovine serum. Before seeding in 96-well plates, the cells were stained for 1 h in serum-free medium supplemented with […] cell Tracker Green CMFDA. Cells were seeded into 96-well plates and incubated for 24 h, and then treated with different concentrations of the tested compounds followed by stimulation with 20 ng/mL TNF-α. The luciferase substrate was added to each well after incubation for 6 h, and then the released luciferin signal was detected using an EnVision microplate reader. The IC50 value was derived from a nonlinear regression model (curve-fit), based on a sigmoidal dose response curve (variable slope) and computed using Graphpad Prism 5 (Graphpad Software). Bortezomib (PS-341, CAS No. 179324-69-7) was used as the positive control.

[2] = test system: C. albicans SC5314 sensitive strain; assay: Anti-fungal susceptibility assay (CLSI M27-A3), sensitive strain; assay type: cell-based; settings: Candida albicans, 48 h incubation at 37 °C
Method: An anti-fungal assay was carried out on the basis of the Clinical and Laboratory Standards Institute (CLSI) method M27-A3 [45, 48]. A single colony of Candida albicans (the resistant strain 901 or the sensitive strain 5314) was chosen from Sabouraud’s agar and then inoculated in yeast extract peptone dextrose medium (YEPD) for activation by shake bottled cultivation (200 rpm, 37 °C). After 16 h, fungi in the late-exponential growth phase were obtained, followed by being adjusted to 1 × 10^3–5 × 10^3 CFU/mL with RPMI 1640 medium. The density of the fungi in 96-well plates was 10^3 CFU/mL, while the final concentrations of the test compounds ranged from 64 to 0.125 μg/mL in triplicate. The assay volume in each well was 100 μL with MIC80 determined following 48 h incubation at 37 °C. Optical density was measured with a microplate reader (Multiskan MK3; Labsystems, Nantaa, Finland) at 630 nm. MIC80 was determined as the lowest concentration of the drugs that inhibited growth by 80% compared with the […]. Fluconazole was used as the positive control.

Row | Compound | MIC80 [2] | IC50 ([1]; Homo sapiens, HEK293, 6 h) | also measured
1 | CC(C)(O)/C=C/C(=O)[C@](C)(O)[C@H]1[C@H](O)C[C@@]2(C)[C@@H]3CC=C4[C@@H](CC(=O)[C@@H](O)C4(C)C)[C@]3(C)C(=O)C[C@]12C [Compound 17, 3α,16α,20(R),25-tetrahydroxy-cucurbita-5,23-dien-2,11,22-trione] |  | 1600 ± 320 nM | 
2 | cucurbitacin B [Compound 15] |  |  | IC50 ([1]; HEK293 NF-κB luciferase, 20 ng/mL TNF-α, 6 h, mean SEM of triplicated experiments): 80 ± 30 nM
3 | CC(C)(O)/C=C/C(=O)[C@](C)(O)[C@H]1[C@H](O)C[C@@]2(C)[C@@H]3CC=C4[C@@H](C[C@H](O)C(=O)C4(C)C)[C@]3(C)C(=O)C[C@]12C [Compound 16, cucurbitacin D] |  | 610 ± 120 nM | 
4 | CC(C)C[C@H](NC(=O)[C@H](Cc1ccccc1)NC(=O)c1cnccn1)B(O)O [PS-341, Bortezomib, reference compound] |  |  | IC50 ([1]; Homo sapiens, HEK293 NF-κB luciferase, 20 ng/mL TNF-α, 6 h, mean SEM of triplicated experiments): 440 ± 80 nM

The next lines start with results.

Row | MIC80 [2] | Compound | IC50 ([1]; Homo sapiens, HEK293, 6 h) | also measured
5 | 32 µg/mL (≈ 65.5 µM) | CC1(C)CC[C@]2(C(=O)O)CC[C@]3(C)C(=CC[C@@H]4[C@@]5(C)C[C@@H](O)[C@@H](O)[C@@](C)(CO)[C@@H]5CC[C@]43C)[C@@H]2C1 [Compound 12] |  | 
6 | 0.125 µg/mL (≈ 0.408 µM) | OC(Cn1cncn1)(Cn1cncn1)c1ccc(F)cc1F [Fluconazole, reference compound] |  | 
